# Measured values as given in US10611740B2, “Aryl dihydro-2H-benzo[b][1,4]oxazine sulfonamide and related compounds for use as agonists of RORγ and the treatment of disease” (Lycera Corporation, priority 2015, dated 2020).
# Columns and labels:
# Gal4-RORγ-LBD = molecular target: T1, Gal4-RORγ-LBD (Homo sapiens, UniProt P51449); assay: Gal4-RORγ Luciferase Reporter Assay in HEK-293T Cells; format: cell-based; conditions: HEK-293 cells, 2 μM ursolic acid
# T1 construct: expressed in transfected cells; host or cells: HEK-293 cells (pcDNA3.1neo plasmid)
# T1 sequence (P51449 269-508 limits assumed): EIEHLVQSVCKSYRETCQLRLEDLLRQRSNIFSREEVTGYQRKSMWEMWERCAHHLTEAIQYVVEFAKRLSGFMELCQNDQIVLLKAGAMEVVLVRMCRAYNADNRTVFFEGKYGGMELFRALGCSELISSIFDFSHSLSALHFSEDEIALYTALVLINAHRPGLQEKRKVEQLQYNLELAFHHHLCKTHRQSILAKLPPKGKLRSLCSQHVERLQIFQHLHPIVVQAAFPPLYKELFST
# How it was run: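 HEK-293 cells were transiently co-transfected with Gal4-RORγ-LBD and pGL4.31 Gal4-luciferase, with ursolic acid added at 2 μM final. Compounds were incubated overnight at 37° C. in 0.2% DMSO and luminescence read with One-Glo. Max Response is the upper plateau of a 4-parameter logistic fit, with signal lacking ursolic acid or compound set to 100.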
# RORγ-LBD = molecular target: T2, RORγ-LBD (Homo sapiens, UniProt P51449); assay: RORγ-Ligand Binding Domain (LBD) TR-FRET Assay; format: biochemical;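 for TR-FRET Assay Max Response: 665/615 nm ratio relative to signal without ursolic acid or compound set at 100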
# T2 construct: made in house; host or cells: SF9 cells (baculovirus)
# T2 sequence (P51449 269-508 limits assumed): T1 sequence (P51449 269-508 limits assumed)
# How it was run: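 His-tagged RORγ-LBD from SF9 baculovirus lysate, ~3 nM final, in 50 mM Tris pH 7.0, 50 mM KCl, 1 mM EDTA, 0.1 mM DTT, 0.01% BSA. Biotinylated SRC1 LXXLL peptide at 200 nM final with 2 μM ursolic acid; TR-FRET read-out, 1% DMSO final.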
SMILES,EC50 (Gal4-RORγ-LBD) [nM],Gal4-RORγ Assay Max Response (Gal4-RORγ-LBD),EC50 (RORγ-LBD) [nM],TR-FRET Assay Max Response (RORγ-LBD)
"O=C(O)[C@]1(C[C@H]2CN(S(=O)(=O)c3cccc(C(F)(F)F)c3)c3cc(-c4cc(F)cc(OC(F)F)c4)ccc3O2)CCNC1=O [Compound 73, (S)-3-(((S)-6-(3-(difluoromethoxy)-5-fluorophenyl)-4-((3-(trifluoromethyl)phenyl)sulfonyl)-3,4-dihydro-2H-benzo[b][1,4]oxazin-2-yl)methyl)-2-oxopyrrolidine-3-carboxylic acid]",< 500,** (The symbol “**” indicates a value in the range of greater than 90 to 150),< 500,*** (The symbol “***” indicates a value in the range of greater than 150 to 200)
"O=C(O)[C@@]1(C[C@H]2CN(S(=O)(=O)c3cccc(C(F)(F)F)c3)c3cc(-c4cc(F)cc(OC(F)F)c4)ccc3O2)CCNC1=O [Compound 74, (R)-3-(((S)-6-(3-(difluoromethoxy)-5-fluorophenyl)-4-((3-(trifluoromethyl)phenyl)sulfonyl)-3,4-dihydro-2H-benzo[b][1,4]oxazin-2-yl)methyl)-2-oxopyrrolidine-3-carboxylic acid]",< 500,** (The symbol “**” indicates a value in the range of greater than 90 to 150),< 500,** (The symbol “**” indicates a value in the range of greater than 90 to 150)
"O=C1CC[C@@](C[C@H]2CN(S(=O)(=O)c3cccc(C(F)(F)F)c3)c3cc(-c4cc(F)ccc4F)ccc3O2)(C(=O)O)N1 [Compound 75, (R)-2-(((S)-6-(2,5-difluorophenyl)-4-((3-(trifluoromethyl)phenyl)sulfonyl)-3,4-dihydro-2H-benzo[b][1,4]oxazin-2-yl)methyl)-5-oxopyrrolidine-2-carboxylic acid]",5000 to 10000,*** (The symbol “***” indicates a value in the range of greater than 150 to 200),< 500,** (The symbol “**” indicates a value in the range of greater than 90 to 150)
"O=C(O)[C@]1(C[C@H]2CN(S(=O)(=O)c3cccc(C(F)(F)F)c3)c3cc(-c4cc(F)ccc4F)ccc3O2)CCNC1=O [Compound 77A, (S)-3-(((S)-6-(2,5-difluorophenyl)-4-((3-(trifluoromethyl)phenyl)-sulfonyl)-3,4-dihydro-2H-benzo[b][1,4]oxazin-2-yl)methyl) 2-oxopyrrolidine-3-carboxylic acid]",,**** (The symbol “****” indicates a value greater than 200),< 500,** (The symbol “**” indicates a value in the range of greater than 90 to 150)
"O=C(O)[C@@]1(C[C@H]2CN(S(=O)(=O)c3cccc(C(F)(F)F)c3)c3cc(-c4cc(F)ccc4F)ccc3O2)CCNC1=O [Compound 77B, (R)-3-(((S)-6-(2,5-difluorophenyl)-4-((3-(trifluoromethyl)phenyl)-sulfonyl)-3,4-dihydro-2H-benzo[b][1,4]oxazin-2-yl)methyl)-2-oxopyrrolidine-3-carboxylic acid]",< 500,** (The symbol “**” indicates a value in the range of greater than 90 to 150),< 500,*** (The symbol “***” indicates a value in the range of greater than 150 to 200)
"O=C(O)C1(C[C@H]2CN(S(=O)(=O)c3cccc(C(F)(F)F)c3)c3cc(-c4cccc(Cl)c4)ccc3O2)CCOCC1 [Compound 78A, (S)-4-((6-(3-chlorophenyl)-4-((3-(trifluoromethyl)phenyl)sulfonyl)-3,4-dihydro-2H-benzo[b][1,4]-oxazin-2-yl)methyl)tetrahydro-2H-pyran-4-carboxylic acid]",< 500,** (The symbol “**” indicates a value in the range of greater than 90 to 150),< 500,** (The symbol “**” indicates a value in the range of greater than 90 to 150)
"Cc1cc(Cl)cc(-c2ccc3c(c2)N(S(=O)(=O)c2cccc(C(F)(F)F)c2)C[C@H](CC2(C(=O)O)CCOCC2)O3)c1 [Compound 78B, (S)-4-((6-(3-chloro-5-methyl-phenyl)-4-((3-(trifluoromethyl)-phenyl)sulfonyl)-3,4-dihydro-2H-benzo[b][1,4]oxazin-2-yl)methyl)tetrahydro-2H-pyran-4-carboxylic acid]",< 500,** (The symbol “**” indicates a value in the range of greater than 90 to 150),< 500,** (The symbol “**” indicates a value in the range of greater than 90 to 150)
"O=C(O)C1(C[C@H]2CN(S(=O)(=O)c3cccc(C(F)(F)F)c3)c3cc(-c4cc(F)cc(F)c4Cl)ccc3O2)CCOCC1 [Compound 78C, (S)-4-((6-(2-chloro-3,5-difluoro-phenyl)-4-((3-(trifluoromethyl)-phenyl)sulfonyl)-3,4-dihydro-2H-benzo[b][1,4]oxazin-2-yl)methyl)tetrahydro-2H-pyran-4-carboxylic acid]",< 500,*** (The symbol “***” indicates a value in the range of greater than 150 to 200),< 500,** (The symbol “**” indicates a value in the range of greater than 90 to 150)
"O=C(O)C1(C[C@H]2CN(S(=O)(=O)c3cccc(C(F)(F)F)c3)c3cc(-c4cc(F)ccc4Cl)ccc3O2)CCOCC1 [Compound 78D, (S)-4-((6-(2-chloro-5-fluoro-phenyl)-4-((3-(trifluoromethyl)-phenyl)sulfonyl)-3,4-dihydro-2H-benzo[b][1,4]oxazin-2-yl)methyl)tetrahydro-2H-pyran-4-carboxylic acid]",< 500,*** (The symbol “***” indicates a value in the range of greater than 150 to 200),< 500,** (The symbol “**” indicates a value in the range of greater than 90 to 150)
"O=C(O)C1(C[C@H]2CN(S(=O)(=O)c3cccc(C(F)(F)F)c3)c3cc(-c4cc(F)cc(Cl)c4)ccc3O2)CCOCC1 [Compound 78E, (S)-4-((6-(3-chloro-5-fluoro-phenyl)-4-((3-(trifluoromethyl)-phenyl)sulfonyl)-3,4-dihydro-2H-benzo[b][1,4]oxazin-2-yl)methyl)tetrahydro-2H-pyran-4-carboxylic acid]",< 500,** (The symbol “**” indicates a value in the range of greater than 90 to 150),< 500,** (The symbol “**” indicates a value in the range of greater than 90 to 150)
"O=C(O)C1(C[C@H]2CN(S(=O)(=O)c3cccc(C(F)(F)F)c3)c3cc(-c4cccc(Cl)c4F)ccc3O2)CCOCC1 [Compound 78F, (S)-4-((6-(3-chloro-2-fluoro-phenyl)-4-((3-(trifluoromethyl)-phenyl)sulfonyl)-3,4-dihydro-2H-benzo[b][1,4]oxazin-2-yl)methyl)tetrahydro-2H-pyran-4-carboxylic acid]",< 500,** (The symbol “**” indicates a value in the range of greater than 90 to 150),< 500,** (The symbol “**” indicates a value in the range of greater than 90 to 150)
